The values below come from PubChem BioAssay AID322 (DTP/NCI, 2004).

This assay has as its system CD2F1 mice, P388/ADR leukemia ip, median survival T/C. Put plainly: NCI In Vivo Anticancer Drug Screen. Data for tumor model P388 Leukemia resistant to Adriamycin; NSC 123127, Developed at Scr 08 (intraperitoneal) in CD2F1 (CDF1) mice. The note with it: endpoint: median survival time, higher = longer survival. How it is done:
The antitumor activity of compounds was measured in mice bearing transplantable tumors. Survival or tumor size were measured and the results are expressed as the measurement made in the treated group (T) divided by the measurement made in the vehicle treated control group (C). The tumor model used in this assay is P388 Leukemia resistant to Adriamycin; NSC 123127, Developed at Scr 08 (intraperitoneal) in CD2F1 (CDF1) mice

Where [1] appears, read: dose: 100.0 mg/kg/injection, schedule: Q01DX005 (ip), vehicle: saline with Tween-80.

Several values for one entry are separate records, joined by “and”; a condition that tells them apart may be missing. Equal values may be shown once. Toxic doses and inconclusive results are not listed.

Turning to `NCCCNCCCCNC(=O)C(O)NC(=O)CCCCCCN=C(N)N` (stereo not given), the T/C was 195 % of control (dose: 4.4 mg/kg/injection, schedule: Q01DX009 (ip), vehicle: other); 193 % of control (dose: 4.4 mg/kg/injection, schedule: Q01DX009 (ip), vehicle: saline); 195 % of control (dose: 6.7 mg/kg/injection, schedule: Q01DX009 (ip), vehicle: other); 198 % of control (dose: 6.7 mg/kg/injection, schedule: Q01DX009 (ip), vehicle: saline); 205 % of control (dose: 10.0 mg/kg/injection, schedule: Q01DX009 (ip), vehicle: other); 206 % of control (dose: 10.0 mg/kg/injection, schedule: Q01DX009 (ip), vehicle: saline). In addition, the T/C is, setting by setting: (dose: 15.0 mg/kg/injection, schedule: Q01DX009 (ip), vehicle: other) 209 % of control; (dose: 15.0 mg/kg/injection, schedule: Q01DX009 (ip), vehicle: saline) 212 % of control; (dose: 22.5 mg/kg/injection, schedule: Q01DX009 (ip), vehicle: other) 162 % of control; (dose: 22.5 mg/kg/injection, schedule: Q01DX009 (ip), vehicle: saline) 219 % of control.
Consider `NCCCN=c1ccc2c3c1c(O)c1c(O)ccc(=O)c1c3[nH]n2CCNCCO`, for which, for the setting “dose: 25.0 mg/kg/injection, schedule: Q01DX001 (ip), vehicle: water”, the T/C was 107 % of control.
For `COc1cccc2c1C(=O)c1c(O)c3c(c(O)c1C2=O)CC(O)(C(=O)CO)CC3OC1CC(N)C(I)C(C)O1` (stereo not given), the T/C runs as follows: (dose: 2.2 mg/kg/injection, schedule: Q01DX001 (ip), vehicle: saline) 98 % of control; (dose: 3.3 mg/kg/injection, schedule: Q01DX001 (ip), vehicle: saline) 99 % of control; (dose: 5.0 mg/kg/injection, schedule: Q01DX001 (ip), vehicle: saline) 108 % of control and 117 % of control; (dose: 7.5 mg/kg/injection, schedule: Q01DX001 (ip), vehicle: saline) 118 % of control; (dose: 25.2 mg/kg/injection, schedule: Q01DX001 (ip), vehicle: saline) 150 % of control.
On to `Nc1ccc2ccc(NS(=O)(=O)N3CCCCC3)cc2c1`, for which the T/C is 111 % of control (dose: 25.0 mg/kg/injection, schedule: Q01DX005 (ip), vehicle: saline with Tween-80); 107 % of control (dose: 50.0 mg/kg/injection, schedule: Q01DX005 (ip), vehicle: saline with Tween-80); 106 % of control under setting [1]; 101 % of control (dose: 200.0 mg/kg/injection, schedule: Q01DX005 (ip), vehicle: saline with Tween-80); 99 % of control (dose: 400.0 mg/kg/injection, schedule: Q01DX005 (ip), vehicle: saline with Tween-80).
Turning to `OC(CBr)C(O)C(O)C(O)CBr` (stereo not given), the T/C (dose: 30.0 mg/kg/injection, schedule: Q01DX009 (ip), vehicle: Klucel (hydroxypropylcellulose) (HPC)) was 162 % of control.
In the case of `O=NN(CCCl)C(=O)NCCCl`, the T/C was 108 % of control and 123 % of control (dose: 5.0 mg/kg/injection, schedule: Q01DX001 (ip), vehicle: saline + alcohol); 150 % of control and 195 % of control (dose: 20.0 mg/kg/injection, schedule: Q01DX001 (ip), vehicle: saline + alcohol); 270 % of control and 309 % of control (dose: 40.0 mg/kg/injection, schedule: Q01DX001 (ip), vehicle: saline + alcohol); 90 % of control (dose: 80.0 mg/kg/injection, schedule: Q01DX001 (ip), vehicle: saline + alcohol).
As to `O=C(O)Cc1cccc2c(=O)cc(-c3ccccc3)oc12`, the T/C (dose: 24.12 mg/kg/injection, schedule: Q01DX005 (ip), vehicle: saline) was 102 % of control; the T/C (dose: 30.0 mg/kg/injection, schedule: Q01DX009 (ip), vehicle: saline) is 114 % of control; the T/C (dose: 30.0 mg/kg/injection, schedule: Q01DX009 (ip), vehicle: sodium bicarbonate) was 124 % of control; the T/C (dose: 40.2 mg/kg/injection, schedule: Q01DX005 (ip), vehicle: saline) was 118 % of control; the T/C (dose: 44.0 mg/kg/injection, schedule: Q01DX009 (ip), vehicle: sodium bicarbonate) was 167 % of control; the T/C (dose: 60.0 mg/kg/injection, schedule: Q04DX002 (ip), vehicle: sodium bicarbonate) is 118 % of control. The T/C (dose: 67.0 mg/kg/injection, schedule: Q01DX009 (ip), vehicle: saline) is 187 % of control; the T/C (dose: 67.0 mg/kg/injection, schedule: Q01DX009 (ip), vehicle: sodium bicarbonate) is 187 % of control and 237 % of control and 245 % of control; the T/C (dose: 90.0 mg/kg/injection, schedule: Q04DX002 (ip), vehicle: sodium bicarbonate) was 118 % of control; the T/C (dose: 100.0 mg/kg/injection, schedule: Q01DX009 (ip), vehicle: sodium bicarbonate) is 207 % of control and 240 % of control and 291 % of control; the T/C (dose: 111.67 mg/kg/injection, schedule: Q01DX005 (ip), vehicle: saline) is 161 % of control; the T/C (dose: 134.0 mg/kg/injection, schedule: Q04DX002 (ip), vehicle: sodium bicarbonate) is 112 % of control. Besides, the T/C (dose: 150.0 mg/kg/injection, schedule: Q01DX009 (ip), vehicle: saline) is 104 % of control; the T/C (dose: 150.0 mg/kg/injection, schedule: Q01DX009 (ip), vehicle: sodium bicarbonate) was 233 % of control and 260 % of control and 124 % of control; the T/C (dose: 175.0 mg/kg/injection, schedule: Q01DX009 (ip), vehicle: sodium bicarbonate) is 103 % of control; the T/C (dose: 186.12 mg/kg/injection, schedule: Q01DX005 (ip), vehicle: saline) is 164 % of control.
As to `O=C(O)CCCc1ccc(N(CCCl)CCCl)cc1`, the T/C is, setting by setting: (dose: 1.25 mg/kg/injection, schedule: Q01DX005 (ip), vehicle: saline with Tween-80) 120 % of control; (dose: 10.0 mg/kg/injection, schedule: Q01DX005 (ip), vehicle: saline with Tween-80) 205 % of control.
As for `COc1cc(C)c(C2NC(=O)c3ccccc3N2)cc1C` (stereo not given), the T/C is, setting by setting: (dose: 50.0 mg/kg/injection, schedule: Q01DX005 (ip), vehicle: Klucel (hydroxypropylcellulose) (HPC)) 109 % of control; (dose: 100.0 mg/kg/injection, schedule: Q01DX005 (ip), vehicle: Klucel (hydroxypropylcellulose) (HPC)) 116 % of control; (dose: 200.0 mg/kg/injection, schedule: Q01DX005 (ip), vehicle: Klucel (hydroxypropylcellulose) (HPC)) 113 % of control; (dose: 288.0 mg/kg/injection, schedule: Q01DX005 (ip), vehicle: Klucel (hydroxypropylcellulose) (HPC)) 158 % of control; (dose: 400.0 mg/kg/injection, schedule: Q01DX005 (ip), vehicle: Klucel (hydroxypropylcellulose) (HPC)) 124 % of control; (dose: 480.0 mg/kg/injection, schedule: Q01DX005 (ip), vehicle: Klucel (hydroxypropylcellulose) (HPC)) 153 % of control. Moreover, the T/C by setting is: (dose: 800.0 mg/kg/injection, schedule: Q01DX005 (ip), vehicle: Klucel (hydroxypropylcellulose) (HPC)) 155 % of control and 206 % of control; (dose: 1333.0 mg/kg/injection, schedule: Q01DX005 (ip), vehicle: Klucel (hydroxypropylcellulose) (HPC)) 207 % of control.
With `O=[N+]([O-])c1ccc([I+]c2ccccc2)cc1`, the T/C (dose: 6.25 mg/kg/injection, schedule: Q01DX005 (ip), vehicle: saline with Tween-80) is 124 % of control; the T/C (dose: 12.5 mg/kg/injection, schedule: Q01DX005 (ip), vehicle: saline with Tween-80) was 124 % of control; the T/C under setting [1] is 155 % of control.
Take `CCCCCCCCCCCCN1C(C)=CS/C1=C\C=C\c1scc(C)[n+]1CCCCCCCCCCCC`: the T/C (dose: 0.75 mg/kg/injection, schedule: Q01DX005 (ip), vehicle: saline with Tween-80) is 123 % of control; the T/C (dose: 1.5 mg/kg/injection, schedule: Q01DX005 (ip), vehicle: saline with Tween-80) was 117 % of control; the T/C (dose: 3.0 mg/kg/injection, schedule: Q01DX005 (ip), vehicle: saline with Tween-80) is 109 % of control.
Turning to `CCOc1ccc(C(C)c2cc3c(cc2OC)OCO3)cc1` (stereo not given), the T/C reads like this: (dose: 25.0 mg/kg/injection, schedule: Q01DX005 (ip), vehicle: distilled water + Tween-80) 110 % of control; (dose: 50.0 mg/kg/injection, schedule: Q01DX005 (ip), vehicle: distilled water + Tween-80) 100 % of control; (dose: 72.0 mg/kg/injection, schedule: Q01DX005 (ip), vehicle: distilled water + Tween-80) 117 % of control; (dose: 100.0 mg/kg/injection, schedule: Q01DX005 (ip), vehicle: distilled water + Tween-80) 113 % of control; (dose: 120.0 mg/kg/injection, schedule: Q01DX005 (ip), vehicle: distilled water + Tween-80) 118 % of control; (dose: 200.0 mg/kg/injection, schedule: Q01DX005 (ip), vehicle: distilled water + Tween-80) 167 % of control and 184 % of control. Further, under “dose: 333.33 mg/kg/injection, schedule: Q01DX005 (ip), vehicle: distilled water + Tween-80”, the T/C is 165 % of control and 176 % of control.
